System: Acinetobacter baumannii strains
Assay: Antibiotic susceptibility test (CLSI disk diffusion test method, read per CLSI 2016)
Assay type: cell-based
Design: antibiotic susceptibility test value / susceptibility test value (number given before S/I/R) / antibiotic susceptibility value: unit not given here
Description: (§1) Strain identification was performed using a kit such as AT 32 GN system (bioMérieux, Marcy l'Etoile, France). […] In Table 2 below, S, I, and R are the results obtained by evaluating susceptibility to the antibacterial agents, in which ‘S’ means susceptible, ‘I’ means intermediate, and ‘R’ means resistant.
as §1, with “as ATB” for “as AT”, “system (bioMédrieux,” for “system (bioMérieux,”, “Table 6” for “Table 2”
as §1, with “as ATB” for “as AT”, “Table 10” for “Table 2”, “susceptible, T” for “susceptible, ‘I’”

cortrimoxazole
antibiotic susceptibility value (host strain YMC16/01/R353): 160 | susceptibility category (S/I/R) (host strain YMC16/01/R353): R | susceptibility test value (number given before S/I/R) (host strain YMC16/01/R353): 160 | antibiotic susceptibility S/I/R (host strain YMC16/01/R380): S | antibiotic susceptibility value (host strain YMC16/01/R380): 20 | susceptibility category (S/I/R) (host strain YMC16/01/R380): S | susceptibility test value (number given before S/I/R) (host strain YMC16/01/R380): 20 | antibiotic susceptibility S/I/R (host strain YMC16/01/R397): R | antibiotic susceptibility value (host strain YMC16/01/R397): 160 | susceptibility category (S/I/R) (host strain YMC16/01/R397): R | susceptibility test value (number given before S/I/R) (host strain YMC16/01/R397): 160 | antibiotic susceptibility S/I/R (host strain YMC16/01/R405): R | antibiotic susceptibility value (host strain YMC16/01/R405): 320 | susceptibility category (S/I/R) (host strain YMC16/01/R405): R | susceptibility test value (number given before S/I/R) (host strain YMC16/01/R405): 320 | antibiotic susceptibility S/I/R (host strain YMC16/03/R4461): R | antibiotic susceptibility value (host strain YMC16/03/R4461): 320 | susceptibility category (S/I/R) (host strain YMC16/03/R4461): R | susceptibility test value (number given before S/I/R) (host strain YMC16/03/R4461): 320 | antibiotic susceptibility S/I/R (host strain YMC16/05/R2210): R | antibiotic susceptibility value (host strain YMC16/05/R2210): 320 | susceptibility category (S/I/R) (host strain YMC16/05/R2210): R | susceptibility test value (number given before S/I/R) (host strain YMC16/05/R2210): 320 | antibiotic susceptibility S/I/R (host strain YMC16/07/R2512): R | antibiotic susceptibility value (host strain YMC16/07/R2512): 320 | susceptibility category (S/I/R) (host strain YMC16/07/R2512): R | susceptibility test value (number given before S/I/R) (host strain YMC16/07/R2512): 320 | antibiotic susceptibility S/I/R (host strain YMC16/09/R2471): R | antibiotic susceptibility value (host strain YMC16/09/R2471): 160 | susceptibility category (S/I/R) (host strain YMC16/09/R2471): R | susceptibility test value (number given before S/I/R) (host strain YMC16/09/R2471): 160 | antibiotic susceptibility S/I/R (host strain YMC16/10/R2537): R | antibiotic susceptibility value (host strain YMC16/10/R2537): 160 | susceptibility category (S/I/R) (host strain YMC16/10/R2537): R | susceptibility test value (number given before S/I/R) (host strain YMC16/10/R2537): 160 | antibiotic susceptibility S/I/R (host strain YMC16/12/B11422): R | antibiotic susceptibility value (host strain YMC16/12/B11422): 160 | susceptibility category (S/I/R) (host strain YMC16/12/B11422): R | susceptibility test value (number given before S/I/R) (host strain YMC16/12/B11422): 160 | antibiotic susceptibility S/I/R (host strain YMC16/12/B11449): R | antibiotic susceptibility value (host strain YMC16/12/B11449): 320 | susceptibility category (S/I/R) (host strain YMC16/12/B11449): R | susceptibility test value (number given before S/I/R) (host strain YMC16/12/B11449): 320 | antibiotic susceptibility S/I/R (host strain YMC16/12/B13325): R | antibiotic susceptibility value (host strain YMC16/12/B13325): 320 | susceptibility category (S/I/R) (host strain YMC16/12/B13325): R | susceptibility test value (number given before S/I/R) (host strain YMC16/12/B13325): 320 | antibiotic susceptibility S/I/R (host strain YMC16/12/P503): R | antibiotic susceptibility value (host strain YMC16/12/P503): 320 | susceptibility category (S/I/R) (host strain YMC16/12/P503): R | susceptibility test value (number given before S/I/R) (host strain YMC16/12/P503): 320 | antibiotic susceptibility S/I/R (host strain YMC16/12/R4637): R | antibiotic susceptibility value (host strain YMC16/12/R4637): 320 | susceptibility category (S/I/R) (host strain YMC16/12/R4637): R | susceptibility test value (number given before S/I/R) (host strain YMC16/12/R4637): 320 | antibiotic susceptibility S/I/R (host strain YMC17/01/B8053): R | antibiotic susceptibility value (host strain YMC17/01/B8053): 320 | susceptibility category (S/I/R) (host strain YMC17/01/B8053): R | susceptibility test value (number given before S/I/R) (host strain YMC17/01/B8053): 320 | antibiotic susceptibility S/I/R (host strain YMC17/01/B10087): R | antibiotic susceptibility value (host strain YMC17/01/B10087): 160 | susceptibility category (S/I/R) (host strain YMC17/01/B10087): R | susceptibility test value (number given before S/I/R) (host strain YMC17/01/B10087): 160 | antibiotic susceptibility S/I/R (host strain YMC17/01/B12075): S | antibiotic susceptibility value (host strain YMC17/01/B12075): 20 | susceptibility category (S/I/R) (host strain YMC17/01/B12075): S | susceptibility test value (number given before S/I/R) (host strain YMC17/01/B12075): 20 | antibiotic susceptibility S/I/R (host strain YMC17/01/B13454): R | antibiotic susceptibility value (host strain YMC17/01/B13454): 160 | susceptibility category (S/I/R) (host strain YMC17/01/B13454): R | susceptibility test value (number given before S/I/R) (host strain YMC17/01/B13454): 160 | antibiotic susceptibility S/I/R (host strain YMC17/01/P518): R | antibiotic susceptibility value (host strain YMC17/01/P518): 160 | susceptibility category (S/I/R) (host strain YMC17/01/P518): R | susceptibility test value (number given before S/I/R) (host strain YMC17/01/P518): 160 | antibiotic susceptibility S/I/R (host strain YMC17/01/R2812): R | antibiotic susceptibility value (host strain YMC17/01/R2812): 320 | susceptibility category (S/I/R) (host strain YMC17/01/R2812): R | susceptibility test value (number given before S/I/R) (host strain YMC17/01/R2812): 320 | antibiotic susceptibility S/I/R (host strain YMC17/02/B14): R | antibiotic susceptibility value (host strain YMC17/02/B14): 320 | susceptibility category (S/I/R) (host strain YMC17/02/B14): R | susceptibility test value (number given before S/I/R) (host strain YMC17/02/B14): 320 | antibiotic susceptibility S/I/R (host strain YMC17/02/B87): R | antibiotic susceptibility value (host strain YMC17/02/B87): 320 | susceptibility category (S/I/R) (host strain YMC17/02/B87): R | susceptibility test value (number given before S/I/R) (host strain YMC17/02/B87): 320 | antibiotic susceptibility S/I/R (host strain YMC17/02/B721): R | antibiotic susceptibility value (host strain YMC17/02/B721): 320 | susceptibility category (S/I/R) (host strain YMC17/02/B721): R | susceptibility test value (number given before S/I/R) (host strain YMC17/02/B721): 320 | antibiotic susceptibility S/I/R (host strain YMC17/02/B4039): R | antibiotic susceptibility value (host strain YMC17/02/B4039): 80 | susceptibility category (S/I/R) (host strain YMC17/02/B4039): R | susceptibility test value (number given before S/I/R) (host strain YMC17/02/B4039): 80 | antibiotic susceptibility S/I/R (host strain YMC17/02/B4520): R | antibiotic susceptibility value (host strain YMC17/02/B4520): 160 | susceptibility category (S/I/R) (host strain YMC17/02/B4520): R | susceptibility test value (number given before S/I/R) (host strain YMC17/02/B4520): 160 | antibiotic susceptibility S/I/R (host strain YMC17/02/B4864): S | antibiotic susceptibility value (host strain YMC17/02/B4864): 20 | susceptibility category (S/I/R) (host strain YMC17/02/B4864): S | susceptibility test value (number given before S/I/R) (host strain YMC17/02/B4864): 20 | antibiotic susceptibility S/I/R (host strain YMC17/02/B8414): R | antibiotic susceptibility value (host strain YMC17/02/B8414): 320 | susceptibility category (S/I/R) (host strain YMC17/02/B8414): R | susceptibility test value (number given before S/I/R) (host strain YMC17/02/B8414): 320 | antibiotic susceptibility S/I/R (host strain YMC17/02/P523): S | antibiotic susceptibility value (host strain YMC17/02/P523): 20 | susceptibility category (S/I/R) (host strain YMC17/02/P523): S | susceptibility test value (number given before S/I/R) (host strain YMC17/02/P523): 20 | antibiotic susceptibility S/I/R (host strain YMC17/02/R541): R | antibiotic susceptibility value (host strain YMC17/02/R541): 320 | susceptibility category (S/I/R) (host strain YMC17/02/R541): R | susceptibility test value (number given before S/I/R) (host strain YMC17/02/R541): 320 | antibiotic susceptibility S/I/R (host strain YMC17/02/R2392): R | antibiotic susceptibility value (host strain YMC17/02/R2392): 320 | susceptibility category (S/I/R) (host strain YMC17/02/R2392): R | susceptibility test value (number given before S/I/R) (host strain YMC17/02/R2392): 320 | antibiotic susceptibility S/I/R (host strain YMC17/03/B4730): R | antibiotic susceptibility value (host strain YMC17/03/B4730): 320 | susceptibility category (S/I/R) (host strain YMC17/03/B4730): R | susceptibility test value (number given before S/I/R) (host strain YMC17/03/B4730): 320 | antibiotic susceptibility S/I/R (host strain YMC17/03/B5000): R | antibiotic susceptibility value (host strain YMC17/03/B5000): 320 | susceptibility category (S/I/R) (host strain YMC17/03/B5000): R | susceptibility test value (number given before S/I/R) (host strain YMC17/03/B5000): 320 | antibiotic susceptibility S/I/R (host strain YMC17/03/P971): R | antibiotic susceptibility value (host strain YMC17/03/P971): 320 | susceptibility category (S/I/R) (host strain YMC17/03/P971): R | susceptibility test value (number given before S/I/R) (host strain YMC17/03/P971): 320 | antibiotic susceptibility S/I/R (host strain YMC17/03/R348): R | antibiotic susceptibility value (host strain YMC17/03/R348): 320 | susceptibility category (S/I/R) (host strain YMC17/03/R348): R | susceptibility test value (number given before S/I/R) (host strain YMC17/03/R348): 320 | antibiotic susceptibility S/I/R (host strain YMC17/03/R585): R | antibiotic susceptibility value (host strain YMC17/03/R585): 320 | susceptibility category (S/I/R) (host strain YMC17/03/R585): R | susceptibility test value (number given before S/I/R) (host strain YMC17/03/R585): 320 | antibiotic susceptibility S/I/R (host strain YMC17/03/R1888): R | antibiotic susceptibility value (host strain YMC17/03/R1888): 320 | susceptibility category (S/I/R) (host strain YMC17/03/R1888): R | susceptibility test value (number given before S/I/R) (host strain YMC17/03/R1888): 320 | antibiotic susceptibility S/I/R (host strain YMC17/03/R3279): R | antibiotic susceptibility value (host strain YMC17/03/R3279): 320 | susceptibility category (S/I/R) (host strain YMC17/03/R3279): R | susceptibility test value (number given before S/I/R) (host strain YMC17/03/R3279): 320 | antibiotic susceptibility S/I/R (host strain YMC17/03/R4077): R | antibiotic susceptibility value (host strain YMC17/03/R4077): 320 | susceptibility category (S/I/R) (host strain YMC17/03/R4077): R | susceptibility test value (number given before S/I/R) (host strain YMC17/03/R4077): 320 | antibiotic susceptibility S/I/R (host strain YMC17/03/R4607): R | antibiotic susceptibility value (host strain YMC17/03/R4607): 320 | susceptibility category (S/I/R) (host strain YMC17/03/R4607): R | susceptibility test value (number given before S/I/R) (host strain YMC17/03/R4607): 320 | antibiotic susceptibility S/I/R (host strain YMC17/04/R488): R | antibiotic susceptibility value (host strain YMC17/04/R488): 160 | susceptibility category (S/I/R) (host strain YMC17/04/R488): R | susceptibility test value (number given before S/I/R) (host strain YMC17/04/R488): 160 | antibiotic susceptibility S/I/R (host strain YMC17/04/R640): R | antibiotic susceptibility value (host strain YMC17/04/R640): 320 | susceptibility category (S/I/R) (host strain YMC17/04/R640): R | susceptibility test value (number given before S/I/R) (host strain YMC17/04/R640): 320 | antibiotic susceptibility S/I/R (host strain YMC/17/05/R1095): R | antibiotic susceptibility value (host strain YMC/17/05/R1095): 320 | susceptibility category (S/I/R) (host strain YMC/17/05/R1095): R | susceptibility test value (number given before S/I/R) (host strain YMC/17/05/R1095): 320

Reference: patent US20240000872A1, “NOVEL BACTERIOPHAGE THAT LYSES ACINETOBACTER GENUS BACTERIA HAVING RESISTANCE TO ANTIBIOTICS” (priority 2020, published 2024)
